This passage reports IC50 results from patent US20260085034A1, “N-(BENZHYDRYL)CYCLOALKYLCARBOXAMIDE DERIVATIVES AS INHIBITORS OF GLYCOGEN SYNTHASE 1 (GYS1) AND METHODS OF USE THEREOF” (Maze Therapeutics, Inc., priority 2022, published 2026).

The target in assay [1] is T1, recombinant hGYS1/GN1 protein (Homo sapiens, UniProt P13807).
T1 sequence (P13807 1-737): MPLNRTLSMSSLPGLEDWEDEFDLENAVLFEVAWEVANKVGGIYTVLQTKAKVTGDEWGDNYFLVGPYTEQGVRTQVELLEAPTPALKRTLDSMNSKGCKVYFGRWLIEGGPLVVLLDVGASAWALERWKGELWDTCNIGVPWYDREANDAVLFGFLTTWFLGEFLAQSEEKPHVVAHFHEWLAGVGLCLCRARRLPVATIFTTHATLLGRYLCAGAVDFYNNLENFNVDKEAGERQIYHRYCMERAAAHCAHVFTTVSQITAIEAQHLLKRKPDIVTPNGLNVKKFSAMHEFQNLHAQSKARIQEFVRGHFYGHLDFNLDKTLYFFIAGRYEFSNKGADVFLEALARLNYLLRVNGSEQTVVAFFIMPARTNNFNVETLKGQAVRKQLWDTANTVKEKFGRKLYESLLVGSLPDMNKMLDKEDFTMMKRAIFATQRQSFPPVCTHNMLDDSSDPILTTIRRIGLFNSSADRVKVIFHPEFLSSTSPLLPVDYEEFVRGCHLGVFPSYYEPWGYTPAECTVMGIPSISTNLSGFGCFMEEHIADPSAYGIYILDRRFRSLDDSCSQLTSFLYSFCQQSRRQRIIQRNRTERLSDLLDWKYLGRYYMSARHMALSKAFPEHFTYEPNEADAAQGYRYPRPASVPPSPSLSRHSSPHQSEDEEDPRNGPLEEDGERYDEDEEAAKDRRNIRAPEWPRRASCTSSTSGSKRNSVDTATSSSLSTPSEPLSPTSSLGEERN
T1 sequence (P46976 1-350 partner): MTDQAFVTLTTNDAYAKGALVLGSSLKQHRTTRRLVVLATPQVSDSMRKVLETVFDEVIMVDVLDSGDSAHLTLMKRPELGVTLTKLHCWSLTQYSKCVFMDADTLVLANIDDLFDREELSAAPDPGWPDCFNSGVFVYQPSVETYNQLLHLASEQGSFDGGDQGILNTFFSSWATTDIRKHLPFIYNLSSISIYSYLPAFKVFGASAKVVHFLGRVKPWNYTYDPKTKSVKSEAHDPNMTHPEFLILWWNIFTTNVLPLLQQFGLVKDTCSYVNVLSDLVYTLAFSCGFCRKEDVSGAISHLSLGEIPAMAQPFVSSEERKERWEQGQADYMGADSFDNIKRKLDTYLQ
The assay is described as follows: GYS1 coupled enzyme assay (PK/LDH). The class given is biochemical. The following applies: geometric mean of at least 2 assay runs; NADH absorbance at 340 nm. In a few lines:
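Recombinant hGYS1/GN1 (50 nM) with 0.8 mM UDP-glucose, 0.2% glycogen and 1 mM glucose-6-phosphate in Tris pH 7.5, 2.5% DMSO. UDP formation coupled via PK/LDH to NADH oxidation, read at 340 nm over 10 min. Control-normalized slopes fit to Hill equation; IC50 as geometric mean of ≥2 runs.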

The subject of assay [2] is glycogen synthesis in HeLa cells (hGYS1). The assay is described as follows: GYS1 cell based assay (glycogen digestion, Glucose-glo). The following applies: Homo sapiens, 24 h incubation, 20 mM glucose, geometric mean of at least 2 runs, read-out: Cellular IC50. An excerpt: The GYS1 cell based assay is a bioluminescent assay that quantifies the glucose resulting from glycogen digestion; the quantified glucose is an indirect measure of GYS1 glycogen synthesis. Newly synthesized glycogen is digested using Glucoamylase; the resulting glucose is quantified by using the Glucose-glo assay kit from Promega. Glucose-glo works by coupling glucose oxidation and NADH production with a bioluminescent system that is activated with NADH. Glucose is oxidized by Glucose dehydrogenase and the reaction reduces NAD+ to NADH; NADH activates Reductase which reduces a pro-luciferin Reductase Substrate to luciferin. Luciferin is detected in a luciferase reaction using Ultra-Glo rLuciferase and ATP, and the luminesce produced is proportional to the glucose in the sample. The luminescence is measured as a single point read in a plate reader.
Compounds that inhibit the hGYS1 enzyme and, subsequently, the glycogen synthesis in cells, were tested using assay ready plates (white, clear bottom 384 well plates) in a final DMSO reaction volume of 1% DMSO. Compounds in the assay ready plates were mixed with media with no additives, except for 20 mM glucose prior to cell addition. HeLa cells were starved in media with no additives, except for 1× Glutamax for 24 h. Starved HeLa cells were plated, in a 1:1 ratio to the media in the assay ready plate and incubated for 24 h at 37° C. and 5% CO2. Cells were washed in 1×PBS buffer and lysed in lysis buffer containing 50% 1×PBS and 25% 0.3 N HCl of the final volume in the well or reaction volume; cells were incubated with lysis buffer for 10 minutes and quenched with the remaining 25% of the reaction volume that consisted of 450 mM Tris pH 8.0. Lysates were mixed in a 1:1 ratio with Glucoamylase in 100 mM Sodium Acetate buffer, pH 5.3; the mixture was incubated for 1 h at 37° C. The digested lysate was mixed in a 1:1 ratio with Glucose-glo detection mixture as per vendor recommendations (Luciferase detection buffer, Reductase, Reductase substrate, Glucose dehydrogenase, and NAD) in read-out plates (solid white 384-well plates) and incubated for 1 h at RT. The plates were read using a plate reader with luminescence capabilities. Each compound concentration Relative Luminescence Unit (RLU) was averaged and normalized to the average RLU of the positive and negative controls to obtain a percentage inhibition. The normalized data vs. concentration was plotted; to determine the half-maximal concentration (IC50), the Levenberg-Marquardt algorithm was used to fit a Hill equation to the dose response data.
The results are shown in Table 4 below, which reports the IC50 of each compound. Unless otherwise specified, IC50 values are reported as the geometric mean of at least 2 assay runs on separate days. As shown in the table below, the compounds of the present invention are potent inhibitors of human GYS1. […] Each run represents the average of a technical replicate, where each compound was assayed twice in the same plate.

Regarding `O=C(N[C@@H](c1ccccc1)c1ccc(C2CC2)c(F)n1)[C@H]1C[C@@H]1F` [compound 2, (1R,2S)-N-((S)-(5-cyclopropyl-6-fluoropyridin-2-yl)(phenyl)methyl)-2-fluorocyclopropane-1-carboxamide], the half-inhibitory concentration (IC50) in assay [1] was 1140 nM; in assay [2] it was 6520 nM.
As for `CC(C)c1ccc([C@@H](NC(=O)[C@H]2C[C@@H]2F)c2cccc3[nH]c(=O)[nH]c23)cc1F` (single isomer, unassigned) [compound 5], the concentration for half-maximal inhibition (IC50) in assay [1] was found to be 131 nM; in assay [2], 1060 nM.
For `CC(C)c1ccc([C@@H](NC(=O)[C@H]2C[C@@H]2F)c2ccc3cn[nH]c3c2)nc1F` (single isomer, unassigned) [compound 3], in that order: 55 nM and 1510 nM.
Taken in the same sequence, the figures for `CC(C)c1ccc([C@@H](NC(=O)[C@H]2C[C@@H]2F)c2cccc(-c3ccn[nH]3)c2)nc1F` (single isomer, unassigned) [compound 4] were 156 nM and 2790 nM.
